Read-outs that look alike come from different tables or passages of the source.
Legend:
EGFR (L858R T790M C797S) = target: T1, EGFR (L858R T790M C797S) (Homo sapiens, UniProt P00533, C797S/L858R/T790M); assay: Biochemical EGFR inhibition assay (Caliper mobility shift), EGFR LRTMCS mutant; conditions: inhibitory activity against EGFR LRTMCS mutant; apparent IC50; read-out: Ext Enz LRTMCS
T1 construct: purchased SignalChem E10-122VG
Summary of the method: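 Apparent IC50s were derived by plotting percent activity against the log of compound concentration. Activity was measured as phosphopeptide electrophoretically separated from substrate, after reactions at room temperature reached 10% to 20% phosphorylation and were halted with 35 mM EDTA.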

[1] = system: phosphorylation of EGFR (Tyr1068) in NCI-H1975 cell line that harbors the EGFR L858R T790M mutations; assay: NCI-H1975 pEGFR AlphaLISA assay; format: cell-based; conditions: 4-5 hours incubation, read-out: Ext pEGFR H1975
Summary of the method: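 NCI-H1975 cells (EGFR L858R/T790M) seeded overnight, then treated with compound for 4-5 h at 37 °C/5% CO2. After lysis, p-EGFR (Tyr1068) quantified by AlphaLISA SureFire Ultra with acceptor then donor beads; IC50 fitted from percent inhibition versus log concentration.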

[2] = inhibition of phosphorylation of mutant EGFR in NCI-H1975 cells
[3] = Homo sapiens, NCI-H1975, inhibition of phosphorylation of mutant EGFR in NCI-H1975 cells

| Compound | IC50 (EGFR (L858R T790M C797S)) [nM] | IC50 [1, 2] [nM] | IC50 [1, 3] [nM] |
| --- | --- | --- | --- |
| CO[C@H]1CCN(c2nccc(Nc3cc4c(C(C)C)ccc(N5CC(CS(C)(=O)=O)C5)c4cn3)n2)C[C@@H]1O (single isomer, unassigned) [Compound 53, (3S,4S)-1-[4-({8-[3-(methanesulfonylmethyl)azetidin-1-yl]-5-(propan-2-yl)isoquinolin-3-yl}amino)pyrimidin-2-yl]-4-methoxypiperidin-3-ol or (3R,4R)-1-[4-({8-[3-(methanesulfonylmethyl)azetidin-1-yl]-5-(propan-2-yl)isoquinolin-3-yl}amino)pyrimidin-2-yl]-4-methoxypiperidin-3-ol] | ≤ 15 | ≤ 10 | – |
| CN[C@H]1CCN(c2nccc(Nc3cc4c(C(C)C)ccc(N5C[C@H](CS(C)(=O)=O)[C@H]5C)c4cn3)n2)C[C@H]1F (single isomer, unassigned) [Compound 306, N-{2-[(3R,4S)-3-fluoro-4-(methylamino)piperidin-1-yl]pyrimidin-4-yl}-8-[(2R,3S)-3-(methanesulfonylmethyl)-2-methylazetidin-1-yl]-5-(propan-2-yl)isoquinolin-3-amine or N-{2-[(3S,4R)-3-fluoro-4-(methylamino)piperidin-1-yl]pyrimidin-4-yl}-8-[(2R,3S)-3-(methanesulfonylmethyl)-2-methylazetidin-1-yl]-5-(propan-2-yl)isoquinolin-3-amine] | 20.1 to 30 | – | 20.1 to 30 |
| CO[C@H]1CCN(c2nccc(Nc3cc4c(C(C)C)ccc(N5C[C@H](CS(C)(=O)=O)[C@H]5C)c4cn3)n2)C[C@@H]1CO (single isomer, unassigned) [Compound 172, [(3R,4S)-1-[4-({8-[(2R,3S)-3-(methanesulfonylmethyl)-2-methylazetidin-1-yl]-5-(propan-2-yl)isoquinolin-3-yl}amino)pyrimidin-2-yl]-4-methoxypiperidin-3-yl]methanol or [(3S,4R)-1-[4-({8-[(2R,3S)-3-(methanesulfonylmethyl)-2-methylazetidin-1-yl]-5-(propan-2-yl)isoquinolin-3-yl}amino)pyrimidin-2-yl]-4-methoxypiperidin-3-yl]methanol] | ≤ 15 | – | 20.1 to 30 |
| CCS(=O)(=O)CC1CN(c2ccc(C(C)C)c3cc(Nc4ccnc(N5C[C@@H](O)[C@@H](OC)C(F)(F)C5)n4)ncc23)C1 (single isomer, unassigned) [Compound 294, (3R,4R)-1-{4-[(8-{3-[(ethanesulfonyl)methyl]azetidin-1-yl}-5-(propan-2-yl)isoquinolin-3-yl)amino]pyrimidin-2-yl}-5,5-difluoro-4-methoxypiperidin-3-ol or (3S,4S)-1-{4-[(8-{3-[(ethanesulfonyl)methyl]azetidin-1-yl}-5-(propan-2-yl)isoquinolin-3-yl)amino]pyrimidin-2-yl}-5,5-difluoro-4-methoxypiperidin-3-ol] | 20.1 to 30 | – | ≤ 10 |
| CO[C@@H]1[C@H](F)CN(c2nccc(Nc3cc4c(C(C)C)ccc(N5CC(CS(C)(=O)=O)C5)c4cn3)n2)C[C@@H]1O (racemic) [Compound 146, (3S,4S,5R)-5-fluoro-1-(4-((5-isopropyl-8-(3-((methylsulfonyl)methyl)azetidin-1-yl)isoquinolin-3-yl)amino)pyrimidin-2-yl)-4-methoxypiperidin-3-ol and (3R,4R,5S)-5-fluoro-1-(4-((5-isopropyl-8-(3-((methylsulfonyl)methyl)azetidin-1-yl)isoquinolin-3-yl)amino)pyrimidin-2-yl)-4-methoxypiperidin-3-ol] | 15.1 to 20 | – | 10.1 to 20 |
| CO[C@H]1CN(c2nccc(Nc3cc4c(C(C)C)ccc(N5C[C@H](CS(C)(=O)=O)[C@H]5C)c4cn3)n2)CC[C@@H]1O (single isomer, unassigned) [Compound 96, (3S,4S)-1-[4-({8-[(2R,3S)-3-(methanesulfonylmethyl)-2-methylazetidin-1-yl]-5-(propan-2-yl)isoquinolin-3-yl}amino)pyrimidin-2-yl]-3-methoxypiperidin-4-ol or (3R,4R)-1-[4-({8-[(2R,3S)-3-(methanesulfonylmethyl)-2-methylazetidin-1-yl]-5-(propan-2-yl)isoquinolin-3-yl}amino)pyrimidin-2-yl]-3-methoxypiperidin-4-ol] | 20.1 to 30 | 10.1 to 20 | – |
| CO[C@H]1CCN(c2nccc(Nc3cc4c(C(C)C)ncc(N5CC(CS(C)(=O)=O)C5)c4cn3)n2)C[C@H]1F [Compound 73, N-{2-[(3R,4S)-3-fluoro-4-methoxypiperidin-1-yl]pyrimidin-4-yl}-8-[3-(methanesulfonylmethyl)azetidin-1-yl]-5-(propan-2-yl)-2,6-naphthyridin-3-amine] | ≤ 15 | – | ≤ 10 |
| CC(C)c1cnc(N2CC(CS(C)(=O)=O)C2)c2cnc(Nc3ccnc(N4C[C@H](F)[C@@H](F)C4)n3)cc12 (single isomer, unassigned) [Compound 8, N-{2-[(3S,4S)-3,4-difluoropyrrolidin-1-yl]pyrimidin-4-yl}-8-[3-(methanesulfonylmethyl)azetidin-1-yl]-5-(propan-2-yl)-2,7-naphthyridin-3-amine or N-{2-[(3R,4R)-3,4-difluoropyrrolidin-1-yl]pyrimidin-4-yl}-8-[3-(methanesulfonylmethyl)azetidin-1-yl]-5-(propan-2-yl)-2,7-naphthyridin-3-amine] | ≤ 15 | 30.1 to 50 | – |
| [2H]C([2H])([2H])O[C@H]1[C@@H](O)CN(c2nccc(Nc3cc4c(C(C)C)ccc(N5C[C@H](CS(C)(=O)=O)[C@H]5C)c4cn3)n2)CC1(F)F (single isomer, unassigned) [Compound 314, (3S,4S)-5,5-difluoro-1-(4-((5-isopropyl-8-((2R,3S)-2-methyl-3-((methylsulfonyl)methyl)azetidin-1-yl)isoquinolin-3-yl)amino)pyrimidin-2-yl)-4-(^2H3)methoxypiperidin-3-ol or (3R,4R)-5,5-difluoro-1-(4-((5-isopropyl-8-((2R,3S)-2-methyl-3-((methylsulfonyl)methyl)azetidin-1-yl)isoquinolin-3-yl)amino)pyrimidin-2-yl)-4-(^2H3)methoxypiperidin-3-ol] | 30.1 to 100 | ≤ 10 | – |
| CCS(=O)(=O)C[C@H]1CN(c2ncc(C(C)C)c3cc(Nc4ccnc(N5CC[C@H](OCCO)[C@H](F)C5)n4)ncc23)[C@@H]1C [Compound 250, 2-{[(3R,4S)-1-[4-({8-[(2R,3S)-3-[(ethanesulfonyl)methyl]-2-methylazetidin-1-yl]-5-(propan-2-yl)-2,7-naphthyridin-3-yl}amino)pyrimidin-2-yl]-3-fluoropiperidin-4-yl]oxy}ethan-1-ol] | ≤ 15 | – | ≤ 10 |
| CO[C@@H]1CCN(c2nccc(Nc3cc4c(F)ccc(N5C[C@H](CS(C)(=O)=O)[C@H]5C)c4cn3)n2)C[C@@H]1F [Compound 36, 5-fluoro-N-{2-[(3S,4R)-3-fluoro-4-methoxypiperidin-1-yl]pyrimidin-4-yl}-8-[(2R,3S)-3-(methanesulfonylmethyl)-2-methylazetidin-1-yl]isoquinolin-3-amine] | ≤ 15 | – | ≤ 10 |
| CO[C@@H]1CCN(c2nccc(Nc3cc4c(C(C)C)ccc(N5C[C@H](CS(C)(=O)=O)[C@H]5C)c4cn3)n2)C[C@H]1C#N (single isomer, unassigned) [Compound 166, (3S,4R)-1-[4-({8-[(2R,3S)-3-(methanesulfonylmethyl)-2-methylazetidin-1-yl]-5-(propan-2-yl)isoquinolin-3-yl}amino)pyrimidin-2-yl]-4-methoxypiperidine-3-carbonitrile or (3R,4S)-1-[4-({8-[(2R,3S)-3-(methanesulfonylmethyl)-2-methylazetidin-1-yl]-5-(propan-2-yl)isoquinolin-3-yl}amino)pyrimidin-2-yl]-4-methoxypiperidine-3-carbonitrile] | 30.1 to 100 | – | 30.1 to 50 |
| (R)-ethyl({1-[3-({2-[(3S,4R)-3-fluoro-4-methoxypiperidin-1-yl]pyrimidin-4-yl}amino)-5-(propan-2-yl)isoquinolin-8-yl]azetidin-3-yl}methyl)imino-λ^6-sulfanone or (S)-ethyl({1-[3-({2-[(3S,4R)-3-fluoro-4-methoxypiperidin-1-yl]pyrimidin-4-yl}amino)-5-(propan-2-yl)isoquinolin-8-yl]azetidin-3-yl}methyl)imino-λ^6-sulfanone [Compound 272] | ≤ 15 | ≤ 10 | – |
| CCS(=O)(=O)C[C@H]1CN(c2ccc(C(C)C)c3cc(Nc4ccnc(N5CC[C@@H](OCCO)C(F)(F)C5)n4)ncc23)[C@@H]1C (single isomer, unassigned) [Compound 303, 2-{[(4S)-1-[4-({8-[(2R,3S)-3-[(ethanesulfonyl)methyl]-2-methylazetidin-1-yl]-5-(propan-2-yl)isoquinolin-3-yl}amino)pyrimidin-2-yl]-3,3-difluoropiperidin-4-yl]oxy}ethan-1-ol or 2-{[(4R)-1-[4-({8-[(2R,3S)-3-[(ethanesulfonyl)methyl]-2-methylazetidin-1-yl]-5-(propan-2-yl)isoquinolin-3-yl}amino)pyrimidin-2-yl]-3,3-difluoropiperidin-4-yl]oxy}ethan-1-ol] | 15.1 to 20 | ≤ 10 | – |
| CC(C)c1ncc(N2CC(CS(C)(=O)=O)C2)c2cnc(Nc3ccnc(N4CC[C@@H](O)[C@@](C)(F)C4)n3)cc12 (single isomer, unassigned) [Compound 70] | ≤ 15 | – | ≤ 10 |

Reference: US12172983B2, “EGFR inhibitors” (Blueprint Medicines Corporation, priority 2019, dated 2024)
